Values after ≈ are worked out from the molar mass of the structure shown.
Tested on: M. tuberculosis Spec. 210 (Multidrug-Resistant)
Assay: microbe, parasite or virus in culture
Format: cell-based, Mycobacterium tuberculosis
Details: for MIC: Mycobacterium tuberculosis, 336 h, read-out: MIC M. tuberculosis Spec. 210 (Multidrug-Resistant); for fold higher activity than referential tuberculostatics: multidrug-resistant Spec. 210, versus INH, RMP, SM, EMB

SMILES	MIC [µg/mL]	fold higher activity than referential tuberculostatics
C/C=C/C(=O)N1CCCC2CN(c3c(F)cc4c(=O)c(C(=O)O)cn(C5CC5)c4c3OC)CC21 (stereo not drawn) [Compound 1m, 7-{1-(E)-But-2-enoyl-octahydro-pyrrolo[3,4-b]pyridin-6-yl}-1-cyclopropyl-6-fluoro-8-methoxy-4-oxo-1,4-dihydro-quinoline-3-carboxylic acid]	64 (≈ 136 µM)	
COc1c(N2CC3CCCN(C(=O)/C=C(\C)CCC=C(C)C)C3C2)c(F)cc2c(=O)c(C(=O)O)cn(C3CC3)c12 (stereo not drawn) [Compound 3m, 1-Cyclopropyl-7-{1-(2E)-(3,7-dimethyl-octa-2,6-dienoyl)-octahydro-pyrrolo[3,4-b]pyridin-6-yl}-6-fluoro-8-methoxy-4-oxo-1,4-dihydro-quinoline-3-carboxylic acid]	128 (≈ 232 µM)	
CCCCCCCC/C=C\CCCCCCCC(=O)N1CCCC2CN(c3c(F)cc4c(=O)c(C(=O)O)cn(C5CC5)c4c3OC)CC21 (stereo not drawn) [Compound 4m, 1-Cyclopropyl-6-fluoro-8-methoxy-7-{1-(Z)-octadec-9-enoyl-octahydro-pyrrolo[3,4-b]pyridin-6-yl}-4-oxo-1,4-dihydro-quinoline-3-carboxylic acid]	> 512	
CCCCCCCC/C=C/CCCCCCCC(=O)N1CCCC2CN(c3c(F)cc4c(=O)c(C(=O)O)cn(C5CC5)c4c3OC)CC21 (stereo not drawn) [Compound 5m, 1-Cyclopropyl-6-fluoro-8-methoxy-7-{1-(E)-octadec-9-enoyl-octahydro-pyrrolo[3,4-b]pyridin-6-yl}-4-oxo-1,4-dihydro-quinoline-3-carboxylic acid]	256 (≈ 384 µM)	
CC/C=C\C/C=C\C/C=C\CCCCCCCC(=O)N1CCCC2CN(c3c(F)cc4c(=O)c(C(=O)O)cn(C5CC5)c4c3OC)CC21 (stereo not drawn) [Compound 6m, 1-Cyclopropyl-6-fluoro-8-methoxy-7-{1-(9Z,12Z,15Z)-octadeca-9,12,15-trienoyl-octahydro-pyrrolo[3,4-b]pyridin-6-yl}-4-oxo-1,4-dihydro-quinoline-3-carboxylic acid]	256 (≈ 387 µM)	
CCCCCCCC/C=C\CCCCCCCCCCCC(=O)N1CCCC2CN(c3c(F)cc4c(=O)c(C(=O)O)cn(C5CC5)c4c3OC)CC21 (stereo not drawn) [Compound 7m, 1-Cyclopropyl-7-{1-(Z)-docos-13-enoyl-octahydro-pyrrolo[3,4-b]pyridin-6-yl}-6-fluoro-8-methoxy-4-oxo-1,4-dihydro-quinoline-3-carboxylic acid]	> 512	
CC/C=C\C/C=C\C/C=C\C/C=C\C/C=C\C/C=C\CCC(=O)N1CCCC2CN(c3c(F)cc4c(=O)c(C(=O)O)cn(C5CC5)c4c3OC)CC21 (stereo not drawn) [Compound 8m, 1-Cyclopropyl-7-{1-(4Z,7Z,10Z,13Z,16Z,19Z)-docosa-4,7,10,13,16,19-hexaenoyl-octahydro-pyrrolo[3,4-b]pyridin-6-yl}-6-fluoro-8-methoxy-4-oxo-1,4-dihydro-quinoline-3-carboxylic acid]	2 (≈ 2.81 µM)	8–16 fold
CCCCCCCCCCCCCCCC(=O)N1CCC[C@H]2CN(c3c(F)cc4c(=O)c(C(=O)O)cn(C5CC5)c4c3OC)C[C@H]21 [Compound 9m, 1-Cyclopropyl-6-fluoro-7-(1-hexadecanoyl-octahydro-pyrrolo[3,4-b]pyridin-6-yl)-8-methox-4-oxo-1,4-dihydro-quinoline-3-carboxylic acid]	> 512	
CCCCC/C=C\C/C=C\CCCCCCCC(=O)N1CCCC2CN(c3c(F)cc4c(=O)c(C(=O)O)cn(C5CC5)c4c3OC)CC21 (stereo not drawn) [Compound 11m, 1-Cyclopropyl-6-fluoro-8-methoxy-7-{1-(9Z,12Z)-octadeca-9,12-dienoyl-octahydropyrrolo-[3,4-b]pyridin-6-yl)-4-oxo-1,4-dihydro-quinoline-3-carboxylic acid]	256 (≈ 386 µM)	
CCCCC/C=C\C/C=C\C/C=C\C/C=C\CCCC(=O)N1CCCC2CN(c3c(F)cc4c(=O)c(C(=O)O)cn(C5CC5)c4c3OC)CC21 (stereo not drawn) [Compound 13m, 1-Cyclopropyl-6-fluoro-7-{1-(5Z,8Z,11Z,14Z)-icosa-5,8,11,14-tetraenoyl-octahydro-pyrrolo[3,4-b]pyridin-6-yl}-8-methoxy-4-oxo-1,4-dihydro-quinoline-3-carboxylic acid]	2 (≈ 2.91 µM)	8–16 fold
CCCCCCCC(=O)N1CCCC2CN(c3c(F)cc4c(=O)c(C(=O)O)cn(C5CC5)c4c3OC)CC21 (stereo not drawn) [Compound 15m, 1-Cyclopropyl-6-fluoro-8-methoxy-7-(1-octanoyl-octahydro-pyrrolo[3,4-b]pyridin-6-yl)-4-oxo-1,4-dihydro-quinoline-3-carboxylic acid]	128 (≈ 243 µM)	
CCCCCCCCCCCCCCCCCC(=O)N1CCCC2CN(c3c(F)cc4c(=O)c(C(=O)O)cn(C5CC5)c4c3OC)CC21 (stereo not drawn) [Compound 16m, 1-Cyclopropyl-6-fluoro-8-methoxy-7-(1-octadecanoyl-octahydro-pyrrolo[3,4-b]pyridin-6-yl)-4-oxo-1,4-dihydro-quinoline-3-carboxylic acid]	> 512	
CC[C@@H](CO)NCCN[C@@H](CC)CO [Ethambutol (EMB), Ethambutol, reference compound]	32 (≈ 157 µM)	
NNC(=O)c1ccncc1 [Isoniazid (INH), Isoniazid, reference compound]	16 (≈ 117 µM)	
CO[C@H]1/C=C/O[C@@]2(C)Oc3c(C)c(O)c4c(O)c(c(/C=N/N5CCN(C)CC5)c(O)c4c3C2=O)NC(=O)/C(C)=C\C=C\[C@H](C)[C@H](O)[C@@H](C)[C@@H](O)[C@@H](C)[C@H](OC(C)=O)[C@@H]1C [Rifampicin (RMP), Rifampicin, reference compound]	32 (≈ 38.9 µM)	
[H]/N=C(/N)N[C@H]1[C@H](O)[C@@H](O)[C@H](O[C@@H]2O[C@@H](C)[C@](O)(C=O)[C@H]2O[C@@H]2O[C@@H](CO)[C@H](O)[C@@H](O)[C@@H]2NC)[C@@H](N/C(N)=N\[H])[C@@H]1O [Streptomycin (SM), Streptomycin, reference compound]	16 (≈ 27.5 µM)	
